How the values were obtained:
lung slices = settings: rat lung slices, 200 nM, 5 h, 37 °C
Method: (§1) In short, lung slices were prepared by performing an in situ perfusion of the lungs of the rats with physiological saline and then filling them with agarose Type VII-A to facilitate slicing. Slices of 500 µm thickness were prepared using the Leica VT1200 microtome slicer (Leica Microsystems, Wetzlar, Germany). […] After a 5 h incubation at 37 °C in an incubated shaker (MaxQ4450 Thermo Fisher Scientific, NinoLab, Stockholm, Sweden) with a rotation speed of 45 rpm, the buffer and lung slices were sampled. To match the matrix of the lung slice samples, 200 μL of aECF was mixed with 200 μL of blank agarose-filled lung homogenate (1:4, w:v). The lung slices were individually removed, dried on filter paper, weighed, and thereafter homogenized in 9 volumes (w:v) of aECF with an ultrasonic processor (VCX-130; Sonics, Chemical Instruments AB, Stockholm, Sweden). All samples were stored at −20 °C pending LC-MS/MS analysis. Assuming that at equilibrium the concentration of the peptide in virtually protein-free buffer is equal to the interstitial fluid concentration in the lung slice, the Vu,lung (mL/g lung) was estimated using Equation (4) as a ratio of the amount of compound in the lung slice (Alung, nanomoles g lung) to the measured final buffer concentration (Cbuffer, micromole/L). […]

[1] = rat
Method: as §1

CC(C)C[C@@H]1NC(=O)CNC(=O)[C@H](CC(N)=O)NC(=O)[C@H](CCCNC(=N)N)NC(=O)[C@H]([C@@H](C)O)NC(=O)[C@@H]2CSSC[C@@H]3NC(=O)[C@H]([C@@H](C)O)NC(=O)CNC(=O)CNC(=O)[C@H](C(C)C)NC(=O)[C@@H]4CSSC[C@H](NC(=O)[C@H]([C@@H](C)O)NC(=O)[C@H](CSSC[C@H](NC(=O)[C@H](C(C)C)NC(=O)[C@@H]5CCCN5C1=O)C(=O)NCC(=O)N[C@@H](CCC(=O)O)C(=O)N[C@@H]([C@@H](C)O)C(=O)N4)NC(=O)CNC(=O)[C@@H]1CCCN1C(=O)[C@H]([C@@H](C)O)NC(=O)[C@H](CC(N)=O)NC3=O)C(=O)N[C@@H](CO)C(=O)N[C@@H](Cc1c[nH]c3ccccc13)C(=O)N1CCC[C@H]1C(=O)N[C@@H](C(C)C)C(=O)N2 [Kalata B1]
Vu,lung (lung slices): 1.23 mL/g lung | Kp uu [1]: 0.195 ± 0.107

Reference: paper PMC10222203 (Pharmaceutics, 2023)
